“And” between values parts separate entries of the source, which are not always exact repeats. Identical values can stand only once. “Also recorded” adds a separate entry of the source.
Legend:
[1] = Caco-2 permeability assay; format: in vitro ADME; conditions: human, Caco-2; 10 µM in apical chamber, 2 h, 37 °C, two experiments; read-out: Caco-2 Papp ± SD
Procedure: (§1) The Caco-2 (ATCC® HTB-37^TM) cell line was purchased from American Type Culture Collection (ATCC) (Manassas, VG, USA). The cells were cultivated in Dulbecco’s Modified Eagle’s Medium (DMEM) supplemented with 10% fetal bovine serum (FBS) in a humidified atmosphere of 5% CO2. The medium was changed every two days, and the cells were subcultured at 70%–80% confluence. […] The inserts were pretreated first with 50 µL of the medium for two minutes. Next, the 200 µL of cells were seeded at […] concentration per insert in apical compartment, whereas 600 µL was added to the basolateral one. […] TEER (transepithelial electrical resistance) measurements was started from 18 days after seeding by Millicell ERS-2 Volt-Ohm Meter (Merck Millipore, Burlington, MA, USA). […] Then, the monolayer was rinsed with HBSS (Hank’s balanced salt solution) and KMP-10, and the highly permeable reference CFN was added at a 10 µM concentration with the HBSS into the apical chambers. The 600 µL of HBSS was added to the basolateral compartments. Lucifer yellow (5 µM) was also added to the apical chambers as the membrane integrity marker. The plate was placed in the orbital shaker (60 rpm) for 2 h at 37 °C. The compounds’ concentrations in apical and basolateral wells were analyzed using the UPLC-MS method with IS. To confirm the membrane integrity, the fluorescence of lucifer yellow was measured in basolateral compartment by EnSpire multiplate reader (Perkin Elmer, Waltham, MA, USA).
(§2) The apparent permeability Papp was calculated from two experiments according to the following formula [34]:Papp= dc/dt × V/(A × C0)(1) where: • dc/dt—the change in concentration in the receiving compartment over time • V—volume of the solution in the receiving compartment (mL) • A—surface area of the membrane (cm^2) • C0—the initial concentration in the donor compartment (µM).

Caco-2 cells = assay: Caco-2 permeability assay; format: in vitro ADME
Procedure: as §1, §2

[2] = Model of excessive eating (palatable diet), 3-week administration; format: in vivo, male Wistar rats
Procedure: The experiments were carried out on male Wistar rats. Their initial body weight was 210–230 g. The animals were housed in pairs in plastic cages in constant temperature facilities exposed to a light–dark cycle; water and food were available ad libitum. The control and experimental groups consisted of eight animals each. All experiments were conducted according to the guidelines of the Animal Use and Care Committee of the Jagiellonian University and were approved for realization (2013 and 2015, Poland; Permissions No 136/2013 and 258/2015).
In order to determine the anorectic activity of KMP-10, its effect on caloric and water intake in the model of excessive eating was assessed. Male Wistar rats were housed in pairs. Two groups of 8 rats were fed diets consisting of milk chocolate with nuts, cheese, salted peanuts, and 7% condensed milk; these rats also had access to a standard feed (Labofeed B, Morawski Manufacturer Feed, Poland) and water ad libitum for 3 weeks. The palatable control group (palatable diet + vehicle) received vehicle (1% Tween 80, i.p.), while the palatable test group (palatable diet + KMP-10 5 mg) was intraperitoneally injected with KMP-10 at the dose 5 mg/kg b.w./day dissolved in 1% Tween 80. The intakes of food and water were evaluated daily. On the 22th day, 20 min after the i.p. administration of heparin 1000 units/rat and thiopental (70 mg/kg b.w.), blood, peritoneal fat pads, liver were collected from animals.
The palatable diet contained 100 g of peanuts—614 kcal; 100 mL of condensed milk—131 kcal; 100 g of milk chocolate with hazelnuts—[…]; and 100 g of cheese (Greek type)—270 kcal.
The spontaneous activity of rats was measured on the 1st, 14th and 20th day of the treatment with a special RFID-system—TraffiCage (TSE-Systems, Germany). The animals were subcutaneously implanted with transmitter identification (RFID), which enabled the presence and time spent in different areas of the cage to be counted; the data were then grouped in a special computer program.
To determine the glucose or cholesterol or triglyceride levels in blood, standard enzymatic and spectrophotometric tests (Biomaxima S.A. Lublin, Poland) were used. The substrate was decomposed with enzymes that were appropriate for the relevant product, which was converted to a colored compound. Coloration was proportional to the concentration. The absorbance was measured at a wavelength of 500 nm.

[3] = Parallel artificial membrane permeability assay (PAMPA)
[4] = 5 mg/kg b.w., vs group fed the palatable feed
[5] = model of excessive eating, 5 mg/kg b.w./day i.p.
[6] = palatable diet, 5 mg/kg b.w./day i.p., 3 weeks, vs obesity control group

## CN1CCN(c2nc(N)nc(CN3C(=O)NC(C)(c4ccc5ccccc5c4)C3=O)n2)CC1 (stereo not drawn) [KMP-10, 3-((4-amino-6-(4-methylpiperazin-1-yl)-1,3,5-triazin-2-yl)methyl)-5-methyl-5-(naphthalen-2-yl)imidazolidine-2,4-dione]
[1]
  Papp at 2 h, 10 µM: 6.27 ± 0.3 ×10⁻⁶ cm/s
Caco-2 cells; bands: Papp <2 low, 2-20 moderate, >20 × 10^−6 cm/s high
  Caco-2 permeability classification: moderate permeability
Caco-2 cells; vs caffeine
  Caco-2 absorption, fold weaker than caffeine: 3 fold
[2]; [4]
  HDL cholesterol: significantly increased; also recorded: significant increase
  Total cholesterol in blood: significantly decreased
[2]; [5]
  Plasma glucose: did not reduce
  Plasma triglyceride: did not reduce
[2]; [6]
  Amount of calories consumed: significantly reduced
  Water intake: but not water intake
[2]; three-week chronic treatment, 5 mg/kg b.w./day i.p.
  Amount of peritoneal fat: did not reduce
[3]; PAMPA, pH 7.4
  Papp at 5 h, 200 µM: 3.76 ± 0.76 ×10⁻⁶ cm/s
[3]; vs caffeine
  PAMPA permeability, fold weaker than caffeine: ~ 4 fold and 4 fold
